Earlier results on three molecules are cited in patent publication US20040121407A1, “Regulation of the growth hormone/IGF-1 axis” (ELIXIR PHARMACEUTICALS, INC., priority 2002, published 2004).

One series has as its system IGF-1 levels. Conditions: administered subcutaneously.
In a further series the target is human SST2 (Homo sapiens, UniProt P30874).
Chain of human SST2 (P30874 whole entry): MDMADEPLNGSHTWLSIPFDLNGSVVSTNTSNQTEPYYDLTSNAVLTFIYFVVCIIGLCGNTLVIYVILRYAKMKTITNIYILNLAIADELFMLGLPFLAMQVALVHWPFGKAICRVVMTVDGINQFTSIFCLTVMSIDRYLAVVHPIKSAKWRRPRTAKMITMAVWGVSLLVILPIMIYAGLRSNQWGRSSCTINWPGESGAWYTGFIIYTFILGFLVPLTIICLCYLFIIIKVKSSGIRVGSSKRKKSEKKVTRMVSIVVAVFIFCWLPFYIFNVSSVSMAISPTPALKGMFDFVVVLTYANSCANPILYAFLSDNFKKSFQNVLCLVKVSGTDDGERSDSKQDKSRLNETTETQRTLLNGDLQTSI

Regarding “[N-acetyl-Tyr^1,D-Arg^2] GHRH^1-29NH2 [standard GHRH antagonist]”, the “human GH secretory response to exogenous GHRH” value in the series with GH secretion (exogenous GHRH) is “inhibits”. Moreover, the “spontaneous GH secretion” value in the series with GH secretion (in vivo) was “lowers”. Take “Pegvisomant: modified human GH in which nine amino acids have been replaced, with polyethylene glycol polymers; GH receptor antagonist”: in the series on IGF-1 levels, the IGF-1 levels entry was “dose dependent reduction”. As for `CC(C)(C)OC(=O)[C@H](CCCCN)NC(=O)[C@@H](Cc1c[nH]c2ccccc12)NC(=O)N1CCC(n2c(=O)[nH]c3ccccc32)CC1` [L-054,522], the selectivity entry on human SST2 is “highly selective”.
